Source: patent US4107188A, “Pregnanes” (Hoffmann-La Roche Inc., priority 1977, dated 1978)

Tests used:
[1] = 4-14C-cholesterol appearance in thoracic duct lymph of rats after oral administration; assay type: in vivo, female albino rats (Charles River); conditions: 100 mg orally, female albino rats, vs Na-TC control
Experimental: The lowering of the cholesterol levels in mammals by the administration of the compound of formula I-B can be seen from the fact that when 100 mg of 7-(3alpha, 12alpha-dihydroxy-5beta-pregnane-20-yl)-3,5-heptadienoic acid was administered orally to female albino rats, the cholesterol level in the lymph was decreased after administration by 60% over the first 8 hours and 91% over the next 9 to 24 hr. period after administration as compared to the control. In this procedure, female albino rats (Charles River), weighing 300 ± 10 g were kept on a Purina chow diet ad libitum until the time of operation. […] This preparation enabled the production of lymph at a constant rate, the infusion of a bile salt, and the simultaneous collection of bile. All animals received, after operation, a continuous duodenal infusion of sodium taurocholate (Na-TC) in 0.85% NaCl. One day after operation, the rats were given, by stomach intubation, an emulsion containing about 4% triolein, 20 μC of 4-^14 C-cholesterol (Specific Activity 61.7 mC/mM, 159 μ C/mg), 2 mg of cholesterol, in addition to protein, carbohydrate, and saline. Both the Na-TC and the cholesterol carrier employed gave a single spot on either thin layer or glass fiber chromatograph so no further purification was attempted. […] An aliquot of the lipid extract was placed on a small piece of glass fiber paper and counted. […]

rat pancreatic lipase = biological target: T1, rat pancreatic lipase (Rattus norvegicus, UniProt P27657); assay: Inhibition of rat pancreatic lipase activity in vitro; assay type: biochemical; conditions: 14C-triolein emulsion, pH 8.6, 20 min. at 37° C
T1 sequence (P27657 17-465): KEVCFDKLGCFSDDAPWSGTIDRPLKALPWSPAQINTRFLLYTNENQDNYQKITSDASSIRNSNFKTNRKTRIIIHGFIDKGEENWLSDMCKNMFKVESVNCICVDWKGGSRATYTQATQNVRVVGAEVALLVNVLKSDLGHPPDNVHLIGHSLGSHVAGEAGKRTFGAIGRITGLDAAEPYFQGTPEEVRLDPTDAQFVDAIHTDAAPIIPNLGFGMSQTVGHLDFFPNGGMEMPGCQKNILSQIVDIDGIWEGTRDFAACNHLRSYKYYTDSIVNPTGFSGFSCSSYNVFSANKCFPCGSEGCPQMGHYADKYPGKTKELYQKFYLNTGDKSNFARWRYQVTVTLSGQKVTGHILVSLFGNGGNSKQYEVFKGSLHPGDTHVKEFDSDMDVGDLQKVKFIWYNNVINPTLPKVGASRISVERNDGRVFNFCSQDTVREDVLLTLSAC
Experimental: Dietary long-chain triglycerides must be hydrolyzed by pancreatic lipase in the duodenum before absorption can occur. […] The capacity of compounds of formula I to inhibit rat pancreatic lipase in vitro is seen by the action of the following compounds:
The ability of compounds to inhibit rat pancreatic lipase is determined by analyzing the nmoles of free fatty acid [oleic acid] released from [^14 C]-triolein. Compounds of A and B are added to an emulsion consisting of: 200,000 dmp ^14 C-triolein, 7.5 mg triolein, 0.75 mg sodium taurocholate, 15 mg bovine serum albumin and 0.9 ml 0.2 M tris-HCl - 0.15 M NaCl, pH 8.6, per assay. Water and/or pancreatic lipase is added to make an assay volume of 1.0 ml. The emulsion is incubated for 20 min. at 37° C in a shaking water bath. The reaction is stopped by the addition of isopropanol; H2 SO4 (40:1). The lipids are extracted twice with 3 ml volumes of hexane. The liberated fatty acids are extracted with 2 ml of 0.1 N aqueous KOH in 50% methanol. A 1 ml aliquot of the KOH layer is paced in a scintillation vial with 10 ml of 2,5-bis-2-(5-tertiarybutyl benzoxazolyl)thiophene. The radioactivity is determined by a scintillation counter. Data are expressed as nmoles free fatty acid [oleic acid] releated.

| Structure (SMILES) | decrease of cholesterol level in the lymph as compared to the control ([1]; 9 to 24 hr. period after administration) | decrease of cholesterol level in the lymph as compared to the control ([1]; over the first 8 hours after administration) | Ki (rat pancreatic lipase) |
| --- | --- | --- | --- |
| C[C@H](C/C=C/C=C/CC(=O)O)[C@H]1CC[C@H]2[C@@H]3CC[C@@H]4C[C@H](O)CC[C@]4(C)[C@H]3C[C@H](O)[C@]12C [Compound A, 7(3α,12α-dihydroxy-5β-pregnane-20-yl)-3,5-heptadienoic acid] | 91% | 60% | 1 mM |
| CC(CCCCC(=O)O)[C@H]1CC[C@H]2[C@@H]3CC[C@@H]4C[C@H](O)CC[C@]4(C)[C@H]3C[C@H](O)[C@]12C (stereo partly drawn) [Compound B, 5-(3α,12α-dihydroxy-5βpregnane-20-yl)pentanoic acid] |  |  | 9 mM |
